These results are taken from the supplement of paper PMC10307832.

Common to all, as to assay: relative viability (nuclei count vs DMSO), 5 days (fraction); higher = more cells survive
Compound in the assay “Sulindac + OSI-027”: CC1=C(CC(=O)O)c2cc(F)ccc2/C1=C\c1ccc([S+](C)[O-])cc1 [Sulindac] + COc1cccc2cc(-c3nc([C@H]4CC[C@H](C(=O)O)CC4)n4ncnc(N)c34)[nH]c12 [OSI-027] (partner 0.5 µM)
In a few lines:
(§1)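 Lung cancer cell lines, seeded in 1536-well plates, were treated the following day by pin tool with a single drug or with five library-drug doses (not always all listed) in √10 steps on top of a fixed anchor-drug dose. Cells were fixed and nuclei stained in one step after 5 days, and nuclei were counted. Relative viability is the nuclei count for treated wells divided by that for vehicle wells, reported as medians of duplicate plates.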

Compound in the assay “Sulindac + Decitabine”: CC1=C(CC(=O)O)c2cc(F)ccc2/C1=C\c1ccc([S+](C)[O-])cc1 [Sulindac] + Nc1ncn([C@H]2C[C@H](O)[C@@H](CO)O2)c(=O)n1 [Decitabine] (partner 2 µM)
In a few lines:
as §1

Compound in assay [1]: CN[C@@H]1C[C@H]2O[C@@](C)([C@@H]1OC)n1c3ccccc3c3c4c(c5c6ccccc6n2c5c31)C(=O)NC4 [Staurosporine] + Nc1ncn([C@H]2C[C@H](O)[C@@H](CO)O2)c(=O)n1 [Decitabine] (partner 2 µM)
An outline of the steps:
as §1

Compound in assay [2]: O=c1[nH]cc(F)c(=O)[nH]1 [5-Fluorouracil] + COc1cc2c(Oc3ccc(NC(=O)C4(C(=O)Nc5ccc(F)cc5)CC4)cc3F)ccnc2cc1OCCCN1CCOCC1 [Foretinib] (partner 0.25 µM)
An outline of the steps:
as §1

Turning to NCI-H1355, the relative viability in the assay with Sulindac + OSI-027 (first compound 0.08 µM) was determined as 0.403; with Sulindac + OSI-027 (first compound 0.253 µM), 0.454; in the assay with Sulindac + OSI-027 (first compound 2.53 µM), 0.38; in the assay with Sulindac + OSI-027 (first compound 8 µM), 0.393; in the assay with Sulindac + Decitabine (first compound 0.08 µM) it was 0.325; with Sulindac + Decitabine (first compound 0.253 µM), 0.343. Besides, the relative viability came out at 0.366 in the assay with Sulindac + Decitabine (first compound 0.8 µM); 0.338 with Sulindac + Decitabine (first compound 2.53 µM); 0.366 with Sulindac + Decitabine (first compound 8 µM); 0.389 in assay [1] (first compound 0.005 µM); 0.293 in assay [1] (first compound 0.01581 µM); 0.281 in assay [1] (first compound 0.05 µM). Also, the relative viability came to 0.234 in assay [1] (first compound 0.1581 µM); 0.152 in assay [1] (first compound 0.5 µM); 0.883 in assay [2] (first compound 0.02 µM); 0.681 in assay [2] (first compound 0.2 µM); 0.338 in assay [2] (first compound 0.6325 µM); 0.256 in assay [2] (first compound 2 µM).
On to NCI-H1395, for which the relative viability with Sulindac + OSI-027 (first compound 0.08 µM) was determined as 0.668; with Sulindac + OSI-027 (first compound 0.253 µM), 0.72; with Sulindac + OSI-027 (first compound 0.8 µM), 0.675; with Sulindac + OSI-027 (first compound 2.53 µM) it was 0.58; with Sulindac + OSI-027 (first compound 8 µM), 0.77; with Sulindac + Decitabine (first compound 0.08 µM) it was 0.726. Further, the relative viability with Sulindac + Decitabine (first compound 0.253 µM) stood at 0.689; with Sulindac + Decitabine (first compound 0.8 µM), 0.664; with Sulindac + Decitabine (first compound 2.53 µM), 0.659; with Sulindac + Decitabine (first compound 8 µM), 0.832; in assay [1] (first compound 0.005 µM), 0.76; in assay [1] (first compound 0.01581 µM), 0.596. In addition, the relative viability in assay [1] (first compound 0.05 µM) was found to be 0.454; in assay [1] (first compound 0.1581 µM), 0.314; in assay [1] (first compound 0.5 µM), 0.27; in assay [2] (first compound 0.02 µM) it was 0.827; in assay [2] (first compound 0.2 µM), 1.14; in assay [2] (first compound 0.6325 µM), 1.05. Also, in assay [2] (first compound 2 µM), the relative viability turned out to be 0.987.
Turning to NCI-H1437, the relative viability with Sulindac + OSI-027 (first compound 0.08 µM) worked out at 1.01; with Sulindac + OSI-027 (first compound 0.253 µM) it was 1; in the assay with Sulindac + OSI-027 (first compound 0.8 µM) it was 0.767; with Sulindac + OSI-027 (first compound 2.53 µM), 0.811; with Sulindac + OSI-027 (first compound 8 µM), 0.96; in the assay with Sulindac + Decitabine (first compound 0.08 µM), 0.667. Besides, the relative viability with Sulindac + Decitabine (first compound 0.253 µM) amounted to 0.619; with Sulindac + Decitabine (first compound 0.8 µM), 0.547; in the assay with Sulindac + Decitabine (first compound 2.53 µM), 0.591; with Sulindac + Decitabine (first compound 8 µM), 0.568; in assay [1] (first compound 0.005 µM), 0.639; in assay [1] (first compound 0.01581 µM), 0.442. Also, the relative viability in assay [1] (first compound 0.05 µM) came to 0.439; in assay [1] (first compound 0.1581 µM) it was 0.248; in assay [1] (first compound 0.5 µM), 0.15; in assay [2] (first compound 0.02 µM) it was 0.687; in assay [2] (first compound 0.2 µM), 0.359; in assay [2] (first compound 0.6325 µM), 0.273. The relative viability in assay [2] (first compound 2 µM) was determined as 0.225.
Consider NCI-H1650, for which the relative viability with Sulindac + OSI-027 (first compound 0.08 µM) was found to be 0.452; with Sulindac + OSI-027 (first compound 0.253 µM), 0.567; with Sulindac + OSI-027 (first compound 2.53 µM), 0.45; with Sulindac + OSI-027 (first compound 8 µM), 0.734; in the assay with Sulindac + Decitabine (first compound 0.08 µM), 0.4; in the assay with Sulindac + Decitabine (first compound 0.253 µM), 0.495. For the same cell line, the relative viability with Sulindac + Decitabine (first compound 0.8 µM) was 0.421; in the assay with Sulindac + Decitabine (first compound 2.53 µM) it was 0.378; in the assay with Sulindac + Decitabine (first compound 8 µM), 0.473; in assay [1] (first compound 0.005 µM), 0.397; in assay [1] (first compound 0.01581 µM), 0.533; in assay [1] (first compound 0.05 µM), 0.341. Besides, the relative viability turned out to be 0.168 in assay [1] (first compound 0.1581 µM); 0.124 in assay [1] (first compound 0.5 µM); 0.963 in assay [2] (first compound 0.02 µM); 1.09 in assay [2] (first compound 0.2 µM); 0.776 in assay [2] (first compound 0.6325 µM); 0.37 in assay [2] (first compound 2 µM).
With NCI-H1651, the relative viability was found to be 0.783 with Sulindac + OSI-027 (first compound 0.08 µM); 0.698 with Sulindac + OSI-027 (first compound 0.253 µM); 0.801 with Sulindac + OSI-027 (first compound 2.53 µM); 0.85 with Sulindac + OSI-027 (first compound 8 µM); 0.748 in the assay with Sulindac + Decitabine (first compound 0.08 µM); 0.702 in the assay with Sulindac + Decitabine (first compound 0.253 µM). Besides, the relative viability with Sulindac + Decitabine (first compound 0.8 µM) is 0.578; with Sulindac + Decitabine (first compound 2.53 µM), 0.568; with Sulindac + Decitabine (first compound 8 µM) it was 0.617; in assay [1] (first compound 0.005 µM) it was 0.623; in assay [1] (first compound 0.01581 µM), 0.509; in assay [1] (first compound 0.05 µM) it was 0.324. Further, the relative viability in assay [1] (first compound 0.1581 µM) came to 0.146; in assay [1] (first compound 0.5 µM), 0.131; in assay [2] (first compound 0.02 µM), 0.797; in assay [2] (first compound 0.2 µM), 0.835; in assay [2] (first compound 0.6325 µM), 0.537; in assay [2] (first compound 2 µM), 0.509.
In the case of NCI-H1666, the relative viability was found to be 0.857 in the assay with Sulindac + OSI-027 (first compound 0.08 µM); 0.882 with Sulindac + OSI-027 (first compound 0.253 µM); 0.753 with Sulindac + OSI-027 (first compound 0.8 µM); 0.826 in the assay with Sulindac + OSI-027 (first compound 2.53 µM); 0.915 in the assay with Sulindac + OSI-027 (first compound 8 µM); 0.679 in the assay with Sulindac + Decitabine (first compound 0.08 µM). Also, the relative viability with Sulindac + Decitabine (first compound 0.253 µM) was 0.73; in the assay with Sulindac + Decitabine (first compound 0.8 µM), 0.668; with Sulindac + Decitabine (first compound 2.53 µM), 0.696; with Sulindac + Decitabine (first compound 8 µM) it was 0.713; in assay [1] (first compound 0.005 µM), 0.685; in assay [1] (first compound 0.01581 µM) it was 0.522. Also, the relative viability in assay [1] (first compound 0.05 µM) came out at 0.559; in assay [1] (first compound 0.1581 µM), 0.476; in assay [1] (first compound 0.5 µM) it was 0.454; in assay [2] (first compound 0.02 µM), 0.969; in assay [2] (first compound 0.2 µM), 0.672; in assay [2] (first compound 0.6325 µM), 0.466. Moreover, the relative viability in assay [2] (first compound 2 µM) was found to be 0.405.
Consider NCI-H1734, for which the relative viability stood at 0.663 with Sulindac + OSI-027 (first compound 0.08 µM); 0.636 with Sulindac + OSI-027 (first compound 0.253 µM); 0.583 with Sulindac + OSI-027 (first compound 2.53 µM); 0.711 with Sulindac + OSI-027 (first compound 8 µM); 0.524 with Sulindac + Decitabine (first compound 0.08 µM); 0.522 with Sulindac + Decitabine (first compound 0.253 µM). Also, the relative viability with Sulindac + Decitabine (first compound 0.8 µM) is 0.435; in the assay with Sulindac + Decitabine (first compound 2.53 µM) it was 0.523; with Sulindac + Decitabine (first compound 8 µM), 0.496; in assay [1] (first compound 0.005 µM) it was 0.495; in assay [1] (first compound 0.01581 µM) it was 0.353; in assay [1] (first compound 0.05 µM) it was 0.215. Further, the relative viability is 0.147 in assay [1] (first compound 0.1581 µM); 0.122 in assay [1] (first compound 0.5 µM); 0.859 in assay [2] (first compound 0.02 µM); 0.881 in assay [2] (first compound 0.2 µM); 0.756 in assay [2] (first compound 0.6325 µM); 0.46 in assay [2] (first compound 2 µM).
